Measured values as given in PubChem BioAssay AID602186 (Broad Institute, 2012).
Activity calls are given as the source filed them.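 How the source made its calls: active means compounds reducing C. glabrata growth on glycerol with a fitted half-effect dose within twice the top tested dose; inconclusive means flat curve with moderate growth loss, or an unreliable fit; inactive means the rest.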

How the values were obtained:
[1] = system: Candida glabrata growth in glycerol, OD600, 48 h; assay: C. glabrata growth inhibition on glycerol, dose response, glycerol medium, OD600, dry powder (AID 602186)
[2] = as above; details: Candida glabrata growth in glycerol, OD600, 48 h

With `O=C(Nc1nnc(-c2ccc3c(c2)CCCC3)o1)c1ccccc1` as the compound, how does the AC50 [1] read?
Its AC50 is 10.3 µM.

For `Cc1ccc(-c2nc3c(Cl)cc(Cl)cc3c(=O)n2O)cc1`, which AC50 [1] is on record?
Its AC50 is 1.39 µM.

For `C=CCNC(=S)N/N=C(\C)c1ccccn1`, which AC50 [1] is on record?
The AC50 was 0.508 µM.

With `O=C(Nc1nnc(-c2ccc3c(c2)CCCC3)o1)c1ccc(Cl)cc1Cl` as the compound, how does the activity change, negative = inhibition ([2]; at 19.5 µM (top of the series)) read?
The activity change, negative = inhibition was -18.1% (inactive).

With `Oc1c(C(c2ccccc2Cl)N2CCCCC2)ccc2cccnc12` (centres undefined) as the compound, how does the AC50 [1] read?
Its AC50 is 9.06 µM.

With `COc1ccc(-c2nnc(NC(=O)c3ccc(S(=O)(=O)N4CCCc5ccccc54)cc3)o2)cc1` as the compound, how does the activity change, negative = inhibition ([2]; at 19.5 µM (top of the series)) read?
Its activity change, negative = inhibition is -21.8% (inactive).

With `NC(=O)c1cccc(C(=O)Nc2nc(-c3ccc4c(c3)CCCC4)cs2)c1` as the compound, how does the activity change, negative = inhibition ([2]; at 19.5 µM (top of the series)) read?
Its activity change, negative = inhibition is 9.1% (inactive).

For `Oc1c(CN2CCN(c3ccccc3)CC2)cc(Cl)c2cccnc12`, which activity change, negative = inhibition ([2]; at 23.5 µM (top of the series)) is on record?
The activity change, negative = inhibition was -34.4% (inactive).

Which AC50 [1] does the source give for `O=C(Oc1c(Cl)cc(Cl)c2cccnc12)c1ccco1` here?
The AC50 was 0.617 µM.

With `Oc1c(C(c2ccc(Cl)cc2)N2CCCC2)ccc2cccnc12` (centres undefined) as the compound, how does the AC50 [1] read?
The AC50 was 13.4 µM.

Which AC50 [1] does the source give for `O=C(Nc1nc(-c2ccccn2)cs1)c1ccc(Cl)s1` here?
Its AC50 is 1.38 µM.

For `O=C(Nc1nc(-c2ccccc2)cs1)c1ccc(Br)s1`, which activity change, negative = inhibition ([2]; at 19.5 µM (top of the series)) is on record?
The activity change, negative = inhibition was -6.9% (inactive).

Which AC50 [1] does the source give for `C/C(=N\NC(=O)c1cc2ccccc2cc1O)c1ccccn1` here?
The AC50 was 8.89 µM.

For `O=C(NNC(=S)Nc1ccc(Cl)c(Cl)c1)c1ccccn1`, which AC50 [1] is on record?
Its AC50 is 0.119 µM.

Which AC50 [1] does the source give for `CCCC(=O)NC(c1cccs1)c1cc(Cl)c2cccnc2c1O` (centres undefined) here?
The AC50 was 2.14 µM.

With `Cc1ccc(C(=O)Nc2nc(-c3ccccn3)cs2)cc1` as the compound, how does the AC50 [1] read?
The AC50 was 3.28 µM.

Which activity change, negative = inhibition ([2]; at 19.5 µM (top of the series)) does the source give for `Cc1ccc(C(=O)Nc2nnc(-c3ccccc3)o2)cc1C` here?
The activity change, negative = inhibition was 5.05% (inactive).

With `Oc1c(CN2CCc3ccccc3C2)cc(Cl)c2cccnc12` as the compound, how does the AC50 [1] read?
The AC50 was 13.6 µM.

With `O=C(Nc1nc(-c2ccccn2)cs1)c1ccccc1` as the compound, how does the AC50 [1] read?
The AC50 was 11.5 µM.

For `Cc1cc(C)n(-c2nc3ccccc3c(=O)n2OCC#N)n1`, which activity change, negative = inhibition ([2]; at 19.5 µM (top of the series)) is on record?
Its activity change, negative = inhibition is -19.2% (inactive).

Which AC50 [1] does the source give for `O=C(Nc1nc(-c2ccccn2)cs1)c1ccc(Br)s1` here?
The AC50 was 1.2 µM.

Which AC50 [1] does the source give for `CCOC(=O)N1C(=O)C2(CCCCC2)N(c2ccc(C)cc2)C1=S` here?
The AC50 was 0.141 µM.

For `CN1CCN(C(c2ccc(C(F)(F)F)cc2)c2ccc3cccnc3c2O)CC1` (centres undefined), which AC50 [1] is on record?
Its AC50 is 2.96 µM.

For `O=C(Nc1nc(-c2ccc3c(c2)CCCC3)cs1)c1ccccc1`, which activity change, negative = inhibition ([2]; at 19.5 µM (top of the series)) is on record?
The activity change, negative = inhibition was 25.4% (inactive).
